pIC50: −log10 of the molar value. Where two headings read alike, the source gives them in different places.
Columns and labels:
[1] = biological target: T1, MMP-9 (Homo sapiens, UniProt P14780); experiment: Thiopeptilide MMP-9 Inhibition Assay; format: biochemical; conditions: for inhibition at 5 µM: read-out: MMP-9: Thiopep. % inhibition
T1 construct: from tissue; host or cells: human polymorphonuclear leukocytes (PMN) from whole blood (New York Blood Center), PMA-stimulated supernatant

[2] = biological target: T2, MMP-3 (Homo sapiens, UniProt P08254); experiment: Primary Thiopeptilide MMP-3 Inhibition Assay; format: biochemical; conditions: for pIC50: 13 nM stromelysin, x (n) = average of n determinations; for inhibition at 5 µM: read-out: MMP-3 Thiopep. % inhibition
T2 construct: Truncated Prostromelysin-257 was expressed in a soluble form in E.coli; made in house; host or cells: E. coli
Protocol: Enzyme: recombinant stromelysin expressed in E.coli and purified as described above. […] The protocols for the assay of compounds as stromelysin inhibitors was the same as that used for MMP-9 except that the assay buffer was 50 mM MES, pH 6.5 containing 150 mM NaCl, 10 mM CaCl2, 0.005% Brij, and 1% DMSO.

[3] = pH 6.5, x (n) = average of n determinations, read-out: MMP-9: Thiopep. IC50
[4] = pH 6.5, read-out: MMP-3 Thiopep. IC50

T2 sequence (P08254 100-274 limits assumed): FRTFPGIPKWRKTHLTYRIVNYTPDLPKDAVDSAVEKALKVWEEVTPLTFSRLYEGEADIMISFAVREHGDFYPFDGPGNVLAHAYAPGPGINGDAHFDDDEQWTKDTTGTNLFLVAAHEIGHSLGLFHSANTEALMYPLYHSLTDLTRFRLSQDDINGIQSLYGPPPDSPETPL
T1 sequence (P14780 107-707 limits assumed): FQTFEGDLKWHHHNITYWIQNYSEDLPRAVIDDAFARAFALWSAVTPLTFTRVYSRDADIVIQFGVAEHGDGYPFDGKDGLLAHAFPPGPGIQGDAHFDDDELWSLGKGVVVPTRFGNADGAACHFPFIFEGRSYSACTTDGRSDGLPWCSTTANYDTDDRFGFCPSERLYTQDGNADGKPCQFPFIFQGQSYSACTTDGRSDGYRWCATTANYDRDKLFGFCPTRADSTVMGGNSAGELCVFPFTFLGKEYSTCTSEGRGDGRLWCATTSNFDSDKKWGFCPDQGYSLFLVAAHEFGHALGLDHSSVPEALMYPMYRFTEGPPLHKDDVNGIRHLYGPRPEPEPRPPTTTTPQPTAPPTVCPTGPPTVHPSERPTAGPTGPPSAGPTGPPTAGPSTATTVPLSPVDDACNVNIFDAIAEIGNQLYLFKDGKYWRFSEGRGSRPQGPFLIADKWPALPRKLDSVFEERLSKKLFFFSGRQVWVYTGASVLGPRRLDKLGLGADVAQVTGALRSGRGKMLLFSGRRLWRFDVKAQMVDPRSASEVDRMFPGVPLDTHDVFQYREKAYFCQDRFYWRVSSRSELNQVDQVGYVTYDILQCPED

| SMILES | pIC50 [1, 3] | pIC50 [2, 4] | inhibition at 5 µM [1] [%] | inhibition at 5 µM [2] [%] | other results |
| --- | --- | --- | --- | --- | --- |
| O=C(CC(CSC(=O)c1ccccc1)C(=O)O)c1ccc(-c2ccc(Cl)cc2)cc1 (stereo not drawn) [Example 202, [1,1'-Biphenyl]-4-butanoic acid, α-[(benzoylthio)methyl]-4'-chloro-γ-oxo-] | 6.30 | 6.60 | – | – | – |
| Cc1nc(-c2ccc(C(=O)CC(CC(C)C)C(=O)O)cc2)co1 (stereo not drawn) [Example 347, Benzenebutanoic acid, 4-(2-methyl-4-oxazolyl)-α-(2-methylpropyl)-γ-oxo-] | – | – | 0 | 12 | – |
| CC(C)c1ccccc1SCC(CC(=O)c1ccc(-c2ccc(Cl)cc2)cc1)C(=O)O (stereo not drawn) [Example 221, [1,1'-Biphenyl]-4-butanoic acid, 4'-chloro-α-[[[2-(1-methylethyl)phenyl]thio]methyl]-γ-oxo-] | 5.62 | 6.62 | – | – | – |
| O=C(c1ccc(-c2ccc(Cl)cc2)cc1)[C@H]1CCCC[C@H]1C(=O)O (relative stereo) [Example 286, Cyclohexanecarboxylic acid, 2-[(4'-chloro[1,1'-biphenyl]-4-yl)carbonyl]-, trans-] | – | – | 0 | 19 | – |
| O=C(O)[C@H]1[C@@H](Sc2ccccc2)CC[C@@H]1C(=O)c1ccc(-c2ccc(Cl)cc2)cc1 (relative stereo) [Example 295] | 6.22 | 7.00 | – | – | – |
| C[Si](C)(C)CC(CC(=O)c1ccc(-c2ccc(Cl)cc2)cc1)C(=O)O (stereo not drawn) [Example 133, [1,1'-Biphenyl]-4-butanoic acid, 4'-chloro-γ-oxo-α-[(trimethylsilyl)methyl]-] | – | – | – | – | pIC50 [1]: 5.00; pIC50 ([2]; MMP-3 Thiopep. IC50, pH 6.5): 6.19 |
| O=Cc1ccccc1-c1ccc(C(=O)CC(CCCc2ccccc2)C(=O)O)cc1 (stereo not drawn) [Example 82, [1,1'-Biphenyl]-4-butanoic acid, 2'-formyl-γ-oxo-α-(3-phenylpropyl)-] | – | – | 9 | 23 | – |
| O=C(O)[C@@H]1CCC[C@H]1C(=O)c1ccc(-c2ccc(Cl)cc2)cc1 (relative stereo) [Example 289, Cyclopentanecarboxylic acid, 2-[(4'-chloro[1,1'-biphenyl]-4-yl)carbonyl]-, trans-] | 6.04 | 6.46 | – | – | – |
| O=C(O)CCCC(=O)c1ccc(-c2ccc(Cl)cc2)cc1 [Example 333, [1,1'-Biphenyl]-4-pentanoic acid, 4'-chloro-δ-oxo-, reference compound] | – | – | 25 | 62 | – |
| CC(C)CC(CCC(=O)O)C(=O)c1ccc(-c2ccc(Cl)cc2)cc1 (centres unmarked) [Example 342] | 6.15 | 6.44 | – | – | – |
| CC(C)CC(CC(=O)c1ccc(-c2ccccc2Cl)cc1)C(=O)O (stereo not drawn) [Example 18, [1,1'-Biphenyl]-4-butanoic acid, 2'-chloro-α-(2-methylpropyl)-γ-oxo-] | – | – | 9 | 0.3 | – |
| O=C(CC(COCc1ccccc1)C(=O)O)c1ccc(-c2ccc(Cl)cc2)cc1 (stereo not drawn) [Example 192, [1,1'-Biphenyl]-4-butanoic acid, 4'-chloro-γ-oxo-α-[(phenylmethoxy)methyl]-] | 6.29 | 6.85 | – | – | – |
| COCCOCC(CC(=O)c1ccc(-c2ccc(Cl)cc2)cc1)C(=O)O (centres unmarked) [Example 191, [1,1'-Biphenyl]-4-butanoic acid, 4'-chloro-=-[(2-methoxyethoxy)methyl]-γ-oxo-] | – | 6.48 | 62 | – | – |
| Cc1ccc(SCC(CC(=O)c2ccc(-c3ccc(Cl)cc3)cc2)C(=O)O)cc1 (stereo not drawn) [Example 211, [1,1'-Biphenyl]-4-butanoic acid, 4'-chloro-α-[[(4-methylphenyl)thio]methyl]-γ-oxo-] | 6.55 | 6.36 | – | – | – |
| O=C(CC(CSc1ccc(Cl)cc1)C(=O)O)c1ccc(-c2ccc(Cl)cc2)cc1 (stereo not drawn) [Example 209, [1,1'-Biphenyl]-4-butanoic acid, 4'-chloro-α-[[(4-chlorophenyl)thio]methyl]-γ-oxo-] | 6.41 | 6.47 | – | – | – |
| O=C(c1ccc(-c2ccc(Cl)cc2)cc1)[C@H]1CC[C@H]1C(=O)O (relative stereo) [Example 290, Cyclobutanecarboxylic acid, 2-[(4'-chloro[1,1'-biphenyl]-4-yl)carbonyl]-, cis-] | – | – | 15 | 35 | – |
| Cc1ccccc1S[C@@H]1CC[C@H](C(=O)c2ccc(-c3ccc(Cl)cc3)cc2)[C@H]1C(=O)O (relative stereo) [Example 304, Cyclopentanecarboxylic acid, 2-[(4'-chloro[1,1'-biphenyl]-4-yl)carbonyl]-5-[(2-methylphenyl)thio]-, (1α,2β,5α)-] | 7.38 | 7.26 | – | – | – |
| O=C(CC(C(=O)O)N1CCSCC1)c1ccc(-c2ccc(Cl)cc2)cc1 (centres unmarked) [Example 259] | – | 5.59 | 37 | – | – |
| O=C(CC(CCCN1C(=O)c2ccccc2C1=O)C(=O)O)c1ccc(-c2ccc(Cl)cc2)cc1 (stereo not drawn) [Example 262, 2H-Isoindole-2-pentanoic acid, α-[2-(4'-chloro[1,1'-biphenyl]-4-yl)-2-oxoethyl]-1,3-dihydro-1,3-dioxo-] | 7.12 | 7.02 | – | – | – |
| CC(CC(=O)O)CC(=O)c1ccc(-c2ccc(Cl)cc2)cc1 (stereo not drawn) [Example 332, [1,1'-Biphenyl]-4-pentanoic acid, 4'-chloro-β-methyl-δ-oxo-, reference compound] | – | – | 41 | 37 | – |
| CC(=O)SCC(CC(=O)c1ccc(C)cc1)C(=O)O (stereo not drawn) [Example 253, Benzenebutanoic acid, α-[(acetylthio)methyl]-4-methyl-γ-oxo-, reference compound] | – | – | 21 | 0 | – |
| N#CCc1ccc(-c2ccc(C(=O)CC(CCCc3ccccc3)C(=O)O)cc2)cc1 (stereo not drawn) [Example 50, [1,1'-Biphenyl]-4-butanoic acid, 4'-(cyanomethyl)γ-oxo-α-(3-phenylpropyl)-] | 6.10 | 6.20 | – | – | – |
| COc1ccccc1SCC(CC(=O)c1ccc(-c2ccc(Cl)cc2)cc1)C(=O)O (stereo not drawn) [Example 229, [1,1'-Biphenyl]-4-butanoic acid, 4'-chloro-α-[[(2-methoxyphenyl)thio]methyl]-γ-oxo-] | 6.05 | 6.52 | – | – | – |
| O=C(O)[C@@H]1CCCC[C@H]1C(=O)c1ccc(-c2ccc(Cl)cc2)cc1 (relative stereo) [Example 285, Cyclohexanecarboxylic acid, 2-[(4'-chloro[1,1'-biphenyl]-4-yl)carbonyl]-, trans-] | – | 5.60 | 21 | – | – |
| CC(C)(C)OC(=O)Nc1ccc(-c2ccc(C(=O)CC(CCCc3ccccc3)C(=O)O)cc2)cc1 (stereo not drawn) [Example 47, [1,1'-Biphenyl]-4-butanoic acid, 4'-[[(1,1-dimethylethoxy)carbonyl]amino]-γ-oxo-α-(3-phenylpropyl)-] | – | 6.25 | 22 | – | – |
| CC(C)CC(CC(=O)c1ccc(Cl)cc1)C(=O)O (stereo not drawn) [Example 27, Benzenebutanoic acid, 4-chloro-α-(2-methylpropyl)-γ-oxo-, reference compound] | – | – | 15 | 11 | – |
| C=C(CC(=O)O)C(=O)c1ccc(-c2ccc(Cl)cc2)cc1 [Example 32, [1,1'-Biphenyl]-4-butanoic acid, 4'-chloro-β-methylene-γ-oxo-, reference compound] | 5.22 | – | – | 58 | – |
| CC(C)CC(CC(=O)c1ccc(-c2ccc(F)cc2)cc1)C(=O)O (stereo not drawn) [Example 15, [1,1'-Biphenyl]-4-butanoic acid, 4'-fluoro-α-(2-methylpropyl)-γ-oxo-] | – | 5.70 | 0 | – | – |

Source: US5789434A, “Derivatives of substituted 4-biarylbutyric acid as matrix metalloprotease inhibitors” (priority 1995, dated 1998)
